Data reported in patent publication US9675614B2, “PRMT5 inhibitors and uses thereof” (Epizyme, Inc., priority 2012, dated 2017).
Where two headings read alike, the source gives them in different places.

Tests used:
Z-138 cell line = assay: Z-138 Proliferation Assay (Cell Titer Glo, 5 days); assay type: cell-based; details: Z-138 cells
Excerpt: RPMI/Glutamax medium, penicillin-streptomycin, heat inactivated fetal bovine serum were purchased from Life Technologies, Grand Island, N.Y., USA. V-bottom polypropylene 384-well plates were purchased from Greiner Bio-One, Monroe, N.C., USA. Cell culture 384-well white opaque plates were purchased from Perkin Elmer, Waltham, Mass., USA. Cell-Titer Glo® was purchased from Promega Corporation, Madison, Wis., USA. SpectraMax M5 plate reader was purchased from Molecular Devices LLC, Sunnyvale, Calif., USA.
A compound source plate was prepared by performing triplicate nine-point 3-fold serial dilutions in DMSO, beginning at 10 mM (final top concentration of compound in the assay was 20 μM and the DMSO was 0.2%). A 100 nL aliquot from the compound stock plate was added to its respective well in the cell plate. […] After addition of compounds, assay plates were incubated for 5 days at 37° C., 5% CO2, relative humidity >90%. […] Luminescence was read in the SpectraMax M5 microplate reader. The concentration of compound inhibiting cell viability by 50% was determined using a 4-parametric fit of the normalized dose response curves.

PRMT5/MEP50 = PRMT5/MEP50 (Homo sapiens (Human), UniProt O14744); assay: PRMT5 Biochemical Assay (PRMT5/MEP50 enzyme assay on peptide substrate, 3H-SAM Flashplate); details: PRMT5/MEP50 biochemical assay; read-out: Biochemical IC50
PRMT5/MEP50, sequence (O14744 other isoform, or with tags, fused parts or gaps): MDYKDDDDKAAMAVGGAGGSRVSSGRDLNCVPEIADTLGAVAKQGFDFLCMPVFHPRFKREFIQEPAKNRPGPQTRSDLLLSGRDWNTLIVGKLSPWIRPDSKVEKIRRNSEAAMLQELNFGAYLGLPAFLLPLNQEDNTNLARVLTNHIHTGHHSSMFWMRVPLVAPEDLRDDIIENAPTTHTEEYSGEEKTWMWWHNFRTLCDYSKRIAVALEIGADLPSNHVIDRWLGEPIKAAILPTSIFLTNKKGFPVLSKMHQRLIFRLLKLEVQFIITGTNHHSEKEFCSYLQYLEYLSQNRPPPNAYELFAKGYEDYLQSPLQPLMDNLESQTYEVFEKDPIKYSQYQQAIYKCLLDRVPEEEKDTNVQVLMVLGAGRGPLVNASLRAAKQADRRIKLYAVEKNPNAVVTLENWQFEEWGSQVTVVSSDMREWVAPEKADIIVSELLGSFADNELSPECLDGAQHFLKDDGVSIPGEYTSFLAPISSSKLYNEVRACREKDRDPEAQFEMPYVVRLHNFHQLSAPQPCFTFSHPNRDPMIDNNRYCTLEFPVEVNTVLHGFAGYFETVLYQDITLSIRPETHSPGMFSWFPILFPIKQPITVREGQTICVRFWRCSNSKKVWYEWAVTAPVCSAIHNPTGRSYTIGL
PRMT5/MEP50, sequence (Q9BQA1 other isoform, or with tags, fused parts or gaps partner): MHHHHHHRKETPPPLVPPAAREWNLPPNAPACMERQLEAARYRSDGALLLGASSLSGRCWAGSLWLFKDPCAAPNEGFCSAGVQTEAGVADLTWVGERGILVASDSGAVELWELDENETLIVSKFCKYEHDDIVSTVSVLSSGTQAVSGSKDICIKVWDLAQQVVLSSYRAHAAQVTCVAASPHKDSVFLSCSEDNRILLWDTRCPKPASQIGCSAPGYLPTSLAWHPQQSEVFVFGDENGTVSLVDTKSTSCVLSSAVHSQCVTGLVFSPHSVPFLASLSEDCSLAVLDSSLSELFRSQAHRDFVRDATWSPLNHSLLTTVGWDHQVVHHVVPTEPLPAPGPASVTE

[1] = test system: symmetric di-methyl arginine in Z-138 cells; assay: Z-138 Methylation Assay (In Cell Western for symmetric di-methyl arginine and DNA content); assay type: cell-based; details: read-out: ICW EC50
Excerpt: [formula] Where top and bottom are the normally allowed to float, but may be fixed at 100 or 0 respectively in a 3-parameter fit. The Hill Coefficient normally allowed to float but may also be fixed at 1 in a 3-parameter fit. Y is the % inhibition and X is the compound concentration.
RPMI/Glutamax medium, penicillin-streptomycin, heat inactivated fetal bovine serum, and D-PBS were purchased from Life Technologies, Grand Island, N.Y., USA. Odyssey blocking buffer, 800CW goat anti-rabbit IgG (H+L) antibody, and Licor Odyssey infrared scanner were purchased from Licor Biosciences, Lincoln, Nebr., USA. Symmetric di-methyl arginine antibody was purchased from EMD Millipore, Billerica, Mass., USA. 16% Paraformaldehyde was purchased from Electron Microscopy Sciences, Hatfield, Pa., USA.
Cell Treatment, in Cell Western (ICW) for Detection of Symmetric Di-Methyl Arginine and DNA Content.
Z-138 cells were seeded in assay medium at a concentration of 50,000 cells per mL to a 384-well cell culture plate with 50 μL per well. Compound (100 nL) from 384 well source plates was added directly to 384 well cell plate. Plates were incubated at 37° C., 5% CO2 for 96 hours. […] Plates were incubated at room temperature for 30 minutes then incubated at 37° C., 5% CO2 for 5 hours. After the incubation, 40 μL per well of 8% paraformaldehyde in PBS (16% paraformaldahyde was diluted to 8% in PBS) was added to each plate and incubated for 30 minutes. […] Next 30 μL per well of Odyssey blocking buffer were added to each plate and incubated 1 hour at room temperature. […]
First, the ratio for each well was determined by:
Each plate included fourteen control wells of DMSO only treatment (minimum inhibition) as well as fourteen control wells for maximum inhibition treated with 3 μM of a reference compound (Background wells). The average of the ratio values for each control type was calculated and used to determine the percent inhibition for each test well in the plate. […] Percent inhibition was determined and IC50 curves were generated using triplicate wells per concentration of compound.

IC50 (PRMT5/MEP50) [nM] | Structure (SMILES) | also measured
< 100 | CN1CCC(Oc2cc(C(=O)NC[C@H](O)CN3CCc4ccccc4C3)ncn2)CC1 [Compound 206] | EC50 (Z-138 cell line; Homo sapiens, Z-138, 120 h): 1000 to 10000 nM; EC50 ([1]; Homo sapiens): 101 to 1000 nM
< 100 | CN1CCC(CNc2cc(C(=O)NC[C@H](O)CN3CCc4ccccc4C3)ccn2)CC1 [Compound 292] | 
< 100 | O=C(NC[C@@H](O)CN1CCc2ccccc2C1)c1cc(NC2CCOCC2)ncn1 [Compound 185] | 
< 100 | CS(=O)(=O)N1CC[C@H](Nc2cccc(C(=O)NC[C@H](O)CN3CCc4ccccc4C3)c2)C1 [Compound 268] | 
< 100 | COc1ccc2oc(C(=O)NC[C@H](O)CN3CCc4ccccc4C3)cc2c1 [Compound 250] | 
< 100 | O=C(NC[C@H](O)CN1CCc2ccccc2C1)c1ccnc(NCC2CCCCN2)c1 (stereo partly drawn) [Compound 237] | 
< 100 | O=C(NC[C@H](O)CN1CCc2ccccc2C1)c1cc(NC2CNC2)ncn1 [Compound 280] | 
< 100 | CN(c1cc(C(=O)NC[C@H](O)CN2CCc3ccccc3C2)ncn1)C1CCOCC1 [Compound 261] | 
< 100 | CC(=O)N1CC(Nc2cc(C(=O)NC[C@H](O)CN3CCc4ccccc4C3)ncn2)C1 [Compound 284, (S)-6-((1-acetylazetidin-3-yl)amino)-N-(3-(3,4-dihydroisoquinolin-2(1H)-yl)-2-hydroxypropyl)pyrimidine-4-carboxamide] | 
< 100 | O=C(NC[C@H](O)CN1CCc2ccccc2C1)c1cc(NC2CCNC2)ncn1 (stereo partly drawn) [Compound 209] | 
< 100 | O=C(NC[C@H](O)CN1CCc2ccccc2C1)c1ccnc(NCc2ccncc2)c1 [Compound 189] | 
101 to 1000 | Cn1nccc1C(=O)NCC(O)CN1CCc2ccccc2C1 (stereo not drawn) [Compound 150] | 

The next lines start with the compound.

Structure (SMILES) | IC50 (PRMT5/MEP50) [nM] | also measured
CN1CCC(Oc2cccc(C(=O)NCC(O)CN3CCc4ccccc4C3)c2)C1 (stereo not drawn) [Compound 134] | < 100 | EC50 [1]: 101 to 1000 nM
CN1CCC(Oc2cccc(C(=O)NCC(O)CN3CCc4ccccc4C3)c2)C1 (stereo not drawn) [Compound 120] | < 100 | EC50 (Z-138 cell line): 1000 to 10000 nM; EC50 ([1]; Homo sapiens): 101 to 1000 nM
O=C(NCC(O)CN1CCc2ccccc2C1)c1cc(NC2CCOCC2)ccn1 (stereo not drawn) [Compound 55, N-(3-(3,4-dihydroisoquinolin-2(1H)-yl)-2-hydroxypropyl)-4-((tetrahydro-2H-pyran-4-yl)amino)picolinamide] | < 100 | 
CN1CCC(N(C)c2cccc(C(=O)NCC(O)CN3CCc4ccccc4C3)c2)CC1 (stereo not drawn) [Compound 131] | < 100 | 
CC(=O)N1CCC(Nc2cccc(C(=O)NCC(O)CN3CCc4ccccc4C3)c2)C1 (stereo not drawn) [Compound 121] | < 100 | 
O=C(NC[C@H](O)CN1CCc2ccccc2C1)c1cccc(NC2CCOC2)c1 (stereo partly drawn) [Compound 80] | < 100 | 
O=C(NCC(O)CN1CCc2ccccc2C1)c1ccc(CN2CCNCC2)cc1 (stereo not drawn) [Compound 143] | < 100 | 
COCCN1CCN(Cc2cccc(C(=O)NCC(O)CN3CCc4ccccc4C3)c2)CC1 (stereo not drawn) [Compound 114] | < 100 | 
O=C(NCC(O)CN1CCc2ccccc2C1)c1cccc(-n2cncn2)c1 (stereo not drawn) [Compound 130] | < 100 | 
O=C(NCC(O)CN1CCc2ccccc2C1)c1cccc(-c2cc[nH]n2)c1 (stereo not drawn) [Compound 10] | < 100 | 
